Measurements as given in patent US9861099B2, “Composition for enhancing plant disease control effect of monosaccharide” (MITSUI CHEMICALS AGRO, INC., priority 2013, dated 2018).

Assays:
Assay type in all cases: in vivo
Plasmopara viticola = assay: Grape vine downy mildew (VDM) control test; conditions: Table 9: monosaccharide 10% liquid preparation, no assistant, 10-fold dilution (monosaccharide 1%)
Sphaerotheca cucurbitae = assay: Cucumber powdery mildew (CPM) control test; conditions: Table 9: monosaccharide 10% liquid preparation, no assistant, 10-fold dilution (monosaccharide 1%)
Phytophthora infestans = conditions: Table 9: monosaccharide 10% liquid preparation, no assistant, 10-fold dilution (monosaccharide 1%)
Botrytis cinerea = assay: Tomato gray mold (GM) control test; conditions: Table 9: monosaccharide 10% liquid preparation, no assistant, 10-fold dilution (monosaccharide 1%)
Protocol: (GM: Gray Mold) Test plants (tomato variety: Oogata Fukuju) were planted followed by cultivating until three first leaves appeared. In the test, dilutions (5 ml/pot) obtained by diluting with distilled water so that each formula reached a prescribed concentration were sprayed. After inoculating the seedlings one day after spraying by spraying with 1×10^7 organisms/ml of conidia of Botrytis cinerea, the seedlings were allowed to stand for about 48 hours in an inoculation room at a room temperature of 20° C. to 23° C. to promote the onset of disease. Disease development was investigated 2 days after inoculation, and the effects thereof were evaluated. Disease development was evaluated using the following indicators for disease control tests evaluated according to the methods described above. Furthermore, preventive values were calculated based on the disease development.

Magnaporthe grisea = conditions: Table 9: monosaccharide 10% liquid preparation, no assistant, 10-fold dilution (monosaccharide 1%)
Venturia inaequalis = assay: Apple scab (AS) control test; conditions: Table 9: monosaccharide 10% liquid preparation, no assistant, 10-fold dilution (monosaccharide 1%)
Protocol: (AS: Apple Scab) Test plants (apple variety: Ohrin) were planted followed by cultivating until four first leaves appeared. In the test, dilutions (5 ml/pot) obtained by diluting with distilled water so that each formula reached a prescribed concentration were sprayed. After inoculating the seedlings one day after spraying by spraying with 1×10^5 organisms/ml of conidia of Venturia inaequalis, the seedlings were allowed to stand for about 24 hours in an inoculation room at a room temperature of 18° C. to 20° C. to promote the onset of disease. Disease development was investigated 10 days after inoculation, and the effects thereof were evaluated. Disease development was evaluated using the following indicators for disease control tests evaluated according to the methods described above. Furthermore, preventive values were calculated based on the disease development.

[1] = system: Rhizoctonia solani AGI-IA; assay: Rice sheath blight (SB) control test; conditions: Table 9: monosaccharide 10% liquid preparation, no assistant, 10-fold dilution (monosaccharide 1%)
Protocol: (SB: Sheath Blight) Test plants (rice variety: Sachikaze) were planted followed by cultivating until the third leaf appeared. In the test, dilutions (5 ml/pot) obtained by diluting with distilled water so that each formula reached a prescribed concentration were sprayed. After inoculating the seedlings one day after spraying with clumps of Rhizoctonia solani AGI-IA cultured for 14 days in oat medium, the seedlings were allowed to stand for about 24 hours in an inoculation room at a room temperature of 28° C. to promote the onset of disease. Disease development was investigated 14 days after inoculation, and the effects thereof were evaluated. Disease development was evaluated using the following indicators for disease control tests evaluated according to the methods described above. Furthermore, preventive values were calculated based on the disease development.

[2] = system: Pseudoperonospora cubensis; assay: Cucumber downy mildew (CDM) control test; conditions: Table 8: D-tagatose liquid preparation with assistant (5 parts), 10-fold dilution (D-tagatose 0.5%+assistant 0.5%); improvement vs D-tagatose only
Ralstonia solanacearum = conditions: Table 9: monosaccharide 10% liquid preparation, no assistant, 10-fold dilution (monosaccharide 1%)

Row | Compound | preventive value VDM (Plasmopara viticola) | preventive value CPM (Sphaerotheca cucurbitae) | preventive value LB (Phytophthora infestans) | preventive value GM (Botrytis cinerea) | preventive value B (Magnaporthe grisea) | preventive value AS (Venturia inaequalis) | preventive value SB [1] | Evaluation Score CDM [2] | preventive value TBW (Ralstonia solanacearum)
1 | OC[C@H]1OC(O)[C@H](O)[C@H](O)[C@@H]1O (stereo partly drawn) [D-allose] | (40) | (17) | (60) | (33) | (40) | (66) | (60) | – | –
2 | O=C[C@H](O)[C@@H](O)[C@@H](O)[C@H](O)CO [D-galactose] | (0) | (0) | (0) | (33) | (17) | (66) | (60) | 1 (Improvement in preventive value of 1 to less than 10) | (25)
3 | O=C(CO)[C@H](O)[C@H](O)[C@H](O)CO [D-psicose] | (0) | (17) | (47) | (50) | (50) | (50) | (40) | 3 (Improvement in preventive value of 20 to less than 30) | –
4 | O=C(CO)[C@H](O)[C@@H](O)[C@H](O)CO [D-sorbose] | (0) | (17) | (33) | (33) | (17) | (33) | (40) | 2 (Improvement in preventive value of 10 to less than 20) | –
5 | O=C[C@@H](O)[C@@H](O)[C@@H](O)[C@H](O)CO [D-talose] | (0) | (17) | – | – | (50) | – | (30) | 2 (Improvement in preventive value of 10 to less than 20) | –
6 | O=C(CO)[C@H](O)[C@@H](O)[C@@H](O)CO [L-fructose] | (0) | (33) | – | (40) | (0) | – | (60) | – | –
7 | O=c1ccn([C@@H]2O[C@H](CO)[C@@H](O)[C@H]2O)c(=O)[nH]1 [Uridine] | – | – | – | – | – | – | – | 0 | –
8 | OC[C@@H](O)[C@H](O)[C@@H](O)CO [Xylitol] | – | – | – | – | – | – | – | 2 (Improvement in preventive value of 10 to less than 20) | –
9 | D-glucose | – | – | – | – | – | – | – | 1 (Improvement in preventive value of 1 to less than 10) | –
10 | D-mannose | – | (33) | – | (16) | (17) | – | (60) | 2 (Improvement in preventive value of 10 to less than 20) | –
11 | L-alanine | – | – | – | – | – | – | – | 2 (Improvement in preventive value of 10 to less than 20) | –
12 | L-leucine | – | – | – | – | – | – | – | 3 (Improvement in preventive value of 20 to less than 30) | –
13 | L-valine | – | – | – | – | – | – | – | 3 (Improvement in preventive value of 20 to less than 30) | –
14 | Lactose | – | – | – | – | – | – | – | 1 (Improvement in preventive value of 1 to less than 10) | –
15 | Stachyose | – | – | – | – | – | – | – | 1 (Improvement in preventive value of 1 to less than 10) | –
